Assay results as given in the supplement of paper PMC10331698.
± gives the standard deviation of the averaged measurements.

Columns and labels:
Assay in all cases: level (log10 ratio to DMSO vehicle control); higher = higher biomarker level / cell amount than vehicle control
[1] = compound: C=CC(=O)OCCC(F)(F)C(F)(F)C(F)(F)C(F)(F)C(F)(F)C(F)(F)C(F)(F)C(F)(F)F [8:2 Fluorotelomer acrylate]; conditions: in DMSO
Experimental: (§1)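 BioMAP Diversity Plus panel of 12 human primary cell co-culture systems (3C, 4H, LPS, SAg, BT, BF4T, BE3C, CASM3C, HDF3CGF, KF3CT, MyoF, Mphg). Compounds were added 1 h before stimulation and left for 24 h (MyoF 48 h; BT 72 h for soluble read-outs or 6 d for IgG). Biomarkers were read by ELISA, cytotoxicity by SRB, PBMC viability and proliferation by Alamar Blue. Each well value was divided by the mean of 8 DMSO control wells on the same plate and log10 transformed; duplicate blinded samples were tested at 4 concentrations.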

[2] = compound: C=CC(=O)OCC(F)(F)C(F)(F)C(F)(F)C(F)(F)C(F)(F)C(F)(F)C(F)(F)C(F)F [1H,1H,9H-Perfluorononyl acrylate]; conditions: in DMSO
Experimental: as §1

[3] = compound: OCCC(F)(F)C(F)(F)C(F)(F)C(F)(F)C(F)(F)C(F)(F)C(F)(F)C(F)(F)F [8:2 Fluorotelomer alcohol]; conditions: 6700 nM; in DMSO
Experimental: as §1

[4] = compound: FC(F)(F)C(F)(F)C(F)(F)C(F)(F)CCI [1H,1H,2H,2H-Perfluorohexyl iodide]; conditions: in DMSO
Experimental: as §1

[5] = compound: O=C(O)C(F)(F)C(F)(F)C(F)(F)C(F)(F)C(F)(F)C(F)(F)C(F)(F)F [Ammonium perfluorooctanoate]; conditions: in DMSO
Experimental: as §1

[6] = compound: C=C(C)C(=O)OCC(F)(F)C(F)(F)C(F)(F)F [2,2,3,3,4,4,4-Heptafluorobutyl methacrylate]; conditions: in DMSO
Experimental: as §1

[7] = compound: OCCCC(F)(F)C(F)(F)C(F)(F)C(F)(F)C(F)(F)C(F)(F)C(F)(F)C(F)(F)F [3-(Perfluorooctyl)propanol]; conditions: 6700 nM; in DMSO
Experimental: as §1

[8] = compound: C=CC(=O)OCC(F)(F)C(F)(F)C(F)(F)C(F)(F)COC(=O)C=C [1H,1H,6H,6H-Perfluorohexane-1,6-diol diacrylate]; conditions: 6700 nM; in DMSO
Experimental: as §1

| Test System | level (log10) ([1]; 6700 nM) | level (log10) ([1]; 20000 nM) | level (log10) ([1]; 60000 nM) | level (log10) ([2]; 6700 nM) | level (log10) ([2]; 20000 nM) | level (log10) ([2]; 60000 nM) | level (log10) [3] | level (log10) ([4]; 6700 nM) | level (log10) ([4]; 20000 nM) | level (log10) ([4]; 60000 nM) | level (log10) ([5]; 6700 nM) | level (log10) ([5]; 20000 nM) | level (log10) ([5]; 60000 nM) | level (log10) ([6]; 6700 nM) | level (log10) ([6]; 20000 nM) | level (log10) ([6]; 60000 nM) | level (log10) [7] | level (log10) [8] |
| --- | --- | --- | --- | --- | --- | --- | --- | --- | --- | --- | --- | --- | --- | --- | --- | --- | --- | --- |
| 3C:CD106/VCAM-1 | -0.0185 ± 0.015 | -0.027 ± 0.041 | -0.024 ± 0.05 | -0.03 | -0.022 ± 0.0057 | -0.042 ± 0.02 | -0.035 ± 0.061 | 0.0045 ± 0.026 | -0.015 ± 0.0014 | -0.0145 ± 0.021 | 0.004 ± 0.03 | -0.0025 ± 0.03 | 0.019 ± 0.041 | 0.0145 ± 0.029 | 0.007 ± 0.016 | 0.017 ± 0.011 | -0.021 | -0.058 ± 0.0071 |
| lMphg:CCL2/MCP-1 | 0.0035 ± 0.021 | -0.0025 ± 0.0064 | -0.0235 ± 0.039 | -0.009 ± 0.0099 | -0.025 ± 0.021 | -0.041 ± 0.055 | 0.0165 ± 0.019 | -0.028 ± 0.042 | -0.0285 ± 0.0021 | 0.008 ± 0.013 | 0.0045 ± 0.016 | 0.005 ± 0.016 | 0.0065 ± 0.0021 | -0.0335 ± 0.028 | -0.012 ± 0.0099 | -0.0115 ± 0.028 | 0.0035 ± 0.016 | -0.04 ± 0.061 |
| lMphg:IL-1alpha | -0.012 | -0.007 ± 0.021 | 0.035 ± 0.059 | 0.006 ± 0.038 | -0.0025 ± 0.054 | 0.0195 ± 0.063 | -0.0045 ± 0.025 | 0.008 | 0.0045 ± 0.012 | 0.0345 ± 0.0078 | 0.0005 ± 0.026 | 0.0005 ± 0.0064 | 0.004 ± 0.014 | 0.01 ± 0.0057 | 0.0245 ± 0.012 | 0.03 ± 0.034 | -0.0015 ± 0.03 | 0.0245 ± 0.057 |
| CASM3C:Serum Amyloid A | -0.0075 ± 0.013 | -0.0125 ± 0.022 | 0.018 ± 0.028 | -0.014 ± 0.014 | -0.0825 ± 0.071 | -0.067 ± 0.0071 | 0.0015 ± 0.016 | -0.017 ± 0.0042 | -0.0155 ± 0.039 | 0.0305 ± 0.1 | 0.0345 ± 0.022 | 0.015 ± 0.0057 | 0.0345 ± 0.012 | 0.0145 ± 0.0078 | 0.03 ± 0.021 | 0.0075 ± 0.0064 | -0.005 ± 0.024 | -0.0575 ± 0.0078 |
| HDF3CGF:MMP-1 | 0.0165 ± 0.015 | 0.026 ± 0.011 | 0.0235 ± 0.029 | 0.006 ± 0.0057 | 0.03 ± 0.0057 | 0.0375 ± 0.016 | 0.034 ± 0.0014 | -0.001 ± 0.0014 | 0.0085 ± 0.0035 | 0.0145 ± 0.018 | 0.027 ± 0.0085 | -0.002 ± 0.0099 | -0.027 ± 0.062 | 0 ± 0.023 | 0.0015 ± 0.0064 | -0.0005 ± 0.016 | -0.0315 ± 0.044 | 0.0075 ± 0.0021 |
| KF3CT:MMP-9 | -0.042 | -0.0885 ± 0.044 | -0.132 ± 0.047 | -0.013 ± 0.014 | -0.0085 ± 0.0035 | -0.0285 ± 0.04 | -0.09 ± 0.027 | 0.0055 ± 0.0078 | 0.0035 ± 0.00071 | 0.0115 ± 0.005 | 0.0045 ± 0.018 | 0.017 ± 0.0099 | 0.0105 ± 0.023 | -0.029 | -0.0115 ± 0.00071 | 0.0085 ± 0.0092 | -0.053 ± 0.0085 | -0.035 ± 0.064 |
| MyoF:PAI-I | -0.0055 ± 0.018 | -0.0105 ± 0.015 | -0.0355 ± 0.015 | -0.0225 ± 0.0078 | -0.0345 ± 0.047 | -0.045 ± 0.0099 | -0.004 ± 0.018 | 0.0085 ± 0.0064 | -0.003 ± 0.0071 | 0.0085 ± 0.03 | 0.0095 ± 0.015 | 0.0035 ± 0.013 | 0.027 ± 0.011 | -0.001 ± 0.0085 | 0.008 ± 0.0085 | 0.015 ± 0.0014 | -0.0075 ± 0.021 | 0 ± 0.042 |
